Measurements reported in PMC4052314, “New Cyclic Cystine Bridged Peptides from the Sponge Suberites waedoensis” (Marine Drugs, 2014).
Positions of bridges follow the written chain, without caps; N, C: chain ends. Residues, ends and D or L forms follow the SMILES beside them.

Assays:
K562 cell-line [1] = test: Cytotoxicity assay, K562 cell line; assay type: cell-based; conditions: literature protocols [21],[22]
Experimental: (§1) The cytotoxicity assays were performed in accord with literature protocols. The Na^+/K^+-ATPase inhibition assay was performed according to the previously described method.

A549 cell-line [2] = test: Cytotoxicity assay, A549 cell line; assay type: cell-based; conditions: literature protocols [21],[22]
Experimental: as §1

K562 cell-line [3] = conditions: cited from earlier work
Source text: (§2) In our search for bioactive metabolites from sponges found in Korean waters, we recently reported the structural determination of gombamide A, a cyclic thiohexapeptide from Clathria gombawuiensis. […] In our continuing search for bioactive metabolites in sponges, we report here the isolation and structural determinations of chujamides A (1) and B (2), new cyclic cystine bridged peptides from the sponge Suberites waedoensis (Figure 1). These proline- ...

Na+/K+-ATPase [4] = conditions: cited from earlier work
Source text: as §2

A549 cell-line [5] = conditions: cited from earlier work
Source text: as §2

Na+/K+-ATPase [6] = test: Na+/K+-ATPase inhibition assay; assay type: biochemical; conditions: previously described method [23]
Experimental: as §1

Compound	LC50, cytotoxicity toward K562 (K562 cell-line [1]) [µM]	LC50, cytotoxicity toward A549 (A549 cell-line [2]) [µM]	cytotoxicity against K562 (in words) (K562 cell-line [3])	inhibitory activity against Na+/K+-ATPase (in words) (Na+/K+-ATPase [4])	cytotoxicity against A549 (in words) (A549 cell-line [5])	IC50 (Na+/K+-ATPase [6]) [µM]
CC[C@H](C)[C@H](NC(=O)CN)C(=O)N[C@H]1CSSC[C@@H](C(=O)O)NC(=O)[C@H]([C@@H](C)CC)NC(=O)[C@@H]2CCCN2C(=O)[C@H](CC(C)C)NC(=O)[C@H](Cc2ccccc2)NC(=O)[C@@H]2CCCN2C(=O)[C@@H]2CCCN2C(=O)[C@H](Cc2ccc(O)cc2)NC(=O)[C@@H]2CCCN2C1=O [Compound 1, chujamide A] (H-GICPYPPFLPIC-OH; disulfide 3-12)	37.0	10.1				
gombamide A			exhibited cytotoxicity	inhibitory activity	exhibited cytotoxicity	
CC[C@H](C)[C@H](N)C(=O)N[C@H]1CSSC[C@@H](C(=O)O)NC(=O)[C@H]([C@@H](C)CC)NC(=O)[C@@H]2CCCN2C(=O)[C@H](CC(C)C)NC(=O)[C@H](Cc2ccccc2)NC(=O)[C@@H]2CCCN2C(=O)[C@@H]2CCCN2C(=O)[C@H](Cc2ccc(O)cc2)NC(=O)[C@@H]2CCCN2C1=O [Compound 2, chujamide B] (H-ICPYPPFLPIC-OH; disulfide 2-11)	55.6	26.4				17.2
COc1cccc2c1C(=O)c1c(O)c3c(c(O)c1C2=O)C[C@@](O)(C(=O)CO)C[C@@H]3O[C@H]1C[C@H](N)[C@H](O)[C@H](C)O1 [doxorubicin]	1.5	1.3				
